Source: patent US10202604B2, “Methods of using microRNA-141” (Stemirna Therapeutics Co., Ltd., priority 2016, dated 2019)
“And” between values parts separate entries of the source, which are not always exact repeats. Equal entries are not always repeated.

Tests used:
LAPC9 cells = experiment: Whole-genome RNA-Seq; assay type: cell-based, human
Procedure: (§1) Du145 and LAPC9 cells were transfected with 30 nM of miR-141 or negative control oligos for 48 h. Total RNA was purified using RNeasy mini kit (Qiagen, Hilden, Germany). The overexpression of miR-141 was validated by qPCR. 100 ng of total RNA samples was then converted to cDNA using a NuGEN Ovation RNA-Seq System v2 according to the manufacturer's protocol (NuGEN, San Carlos, Calif.). NuGEN-amplified double-stranded cDNAs were fragmented into ˜180 base pair (bp) using a Covaris system (Covaris, Woburn, Mass.). Fragmented cDNAs were run on a SPRI-TE library construction system (Beckman Coulter, Fullerton, Calif.), and during the adaptor ligation step, uniquely indexed NEXTflex adapters (Bioo Scientific, Austin, Tex.) were used for each of the samples to allow for multiplexing. Adapter-ligated libraries were enriched by PCR using a KAPA library amplification kit (KAPA Biosystems, Wilmington, Mass.) (1 cycle at 98° C. for 45 seconds; 7 cycles at 98° C. for 15 seconds, 65° C. for 30 seconds, and 72° C. for 30 seconds; 1 cycle at 72° C. for 1 minute), and purified with AMPureXP beads (Beckman Coulter, Pasadena, Calif.). The purified libraries were quantified using a KAPA library quantification kit. The libraries were loaded on cBot (Illumina, San Diego, Calif.) at final concentration of […] to perform cluster generation, followed by 2×76 bp sequencing on HiSeq 2000 (Illumina, San Diego, Calif.).
(§2) Sequencing reads were mapped to reference human genome sequence ([…] [hg19] assembly by TopHat (Version 2.0.6). The number of fragments in each known gene from RefSeq database (downloaded from UCSC Genome Browser on Mar. 9, 2012) was enumerated using htseq-count from HTSeq package (version 0.5.4p9). Genes with less than 10 fragments in all the samples were removed before differential expression analysis. The differential expression between conditions was statistically assessed by R/Bioconductor package edgeR (version 3.0.8). Genes with FDR (false discovery rate) of ≤0.05 and >200 bp were called as differentially expressed.
(§3) For Gene Ontology (GO) analysis, IPA (Ingenuity Pathway Analysis; Qiagen, Valencia, Calif.) and GSEA (Gene Set Enrichment Analysis; Broad Institute) were performed. The standard procedure was followed (www.broadinstitute.org/gsea/doc/GSEAUserGuideFrame.html) as described by GSEA user guide and used curated gene set C2 of the Molecular Signature Database (MSigDB) version 4.0 to compute overlaps between gene set and gene sets in MSigDB. Some of the datasets presented in the text are annotated here.
(§4) The authors' in-house scripts (12) was utilized for sequence alignment and peak calling. The miR-200a CLIP-Seq results containing the binding information were further extracted and merged with Du145 or LAPC9 RNA-Seq data by gene symbol.

Du145 cells = experiment: Whole-genome RNA-Seq; assay type: cell-based, human
Procedure: as §1, §2, §3, §4

human CD44 3'-UTR = experiment: CD44 3'-UTR luciferase reporter assay; assay type: cell-based; conditions: Du145 cells
Procedure: FIGS. 3A-3J show partial suppression of epithelial to mesenchymal transition by miR-141 and CD44 as a direct target of miR-141. FIGS. 3A-3B show qPCR analysis of epithelial to mesenchymal transition markers in bulk (FIG. 3A) or CD44^+ (FIG. 3B) Du145 cells transfected with the miR-141 oligos (30 nM; 48 h). Results were presented as the relative expression levels over the cells transfected with the NC oligos. […] GAPDH was used as control and the relative protein levels after normalizing to GAPDH and NC controls were indicated below each lane. […] Shown below is the actual sequence in the region with the mutated miR-141 binding sequence indicated in grey (below). […] Shown are representative images. […] Du145 cells were co-transfected with NC or miR-141 oligos (30 nM) together with pBabe empty vector or pBabe-CD44 vector. After 48 h, cells were harvested for invasion assays. […]
The human CD44 3′-UTR was amplified from Du145 genomic DNA using primers 5′-[…]-3′ (SEQ ID NO: 2) and 5′-[…]-3′ (SEQ ID NO: 3), as previously described (13). […] The luciferase activities were detected using Duo-luciferase reporter assay system (Promega). Human RAC1, CDC42, CDC42EP3, and ARPC5 3′-UTR luciferase reporter constructs were obtained from SwitchGear Genomics (Menlo Park, Calif.) and luciferase activities were measured per the manufacturer's instructions using LightSwitch luciferase assay kit.

CD44 = CD44 levels in endpoint tumors; assay type: in vivo; conditions: tumors from miR-141 overexpressing cells vs control tumors
[1] = merged with miR-200a CLIP-Seq data

In the case of “miR-141: miR-141 mirVana mimics (Life Technologies); microRNA-141 oligonucleotide may have SEQ ID NO: 1; in some experiments over-expressed by lentiviral vectors (UAACACUGUCUGGUAAAGAUGG; listed as RNA, further chemistry not given here) [miR-141 mirVana mimics (Life Technologies); in some experiments over-expressed by lentiviral vectors]”, the “TGFB2, ZEB1, MAP2K4, VIM, NYH10, FN1 and many other mesenchymal genes” value (LAPC9 cells) is reported as “downregulated”, the “epithelial markers including E-Cadherin, Claudin members and KRTs” value (LAPC9 cells) is reported as “prominently upregulated” and the down-regulated genes (LAPC9 cells; FDR<0.05) is reported as 459. For the same substance, the up-regulated genes (LAPC9 cells; FDR<0.05) was 265, the “putative direct targets of miR-141 (genes)” value (LAPC9 cells; RNA-Seq merged with miR-200a CLIP-Seq data) was 157 and ~150 and the “TGFB2, ZEB1, MAP2K4, and VIM expression” value (Du145 cells) was “downregulated”. The “ZEB2, TWIST2, and SANI2 expression” value (Du145 cells) was “inconsistent changes”, the “epithelial markers including E-Cadherin, Claudin family members and cytokeratins (KRT)” value (Du145 cells) was “strongly induced” and the down-regulated genes (Du145 cells; FDR<0.05) was 949. For the same substance, the up-regulated genes (Du145 cells; FDR<0.05) was 1,304, the “transcripts having binding sites to miR-200a/miR-141” value (Du145 cells; RNA-Seq DEGs merged with miR-200a CLIP-Seq data) was 532 and the “down-regulated transcripts having binding sites to miR-200a/miR-141” value (Du145 cells; [1]) was 263. The “upregulated transcripts having binding sites to miR-200a/miR-141” value (Du145 cells; [1]) was 269, the “luciferase activity, CD44 3'-UTR with mutated miR-141 binding sequence” value (human CD44 3'-UTR) was “abrogated the suppressive effect of miR-141” and the “luciferase activity, wild-type CD44 3'-UTR reporter” value (human CD44 3'-UTR; vs negative control oligos) was “lower”. For the same substance, the “CD44 mRNA level in endpoint tumors” value (CD44) was “lower levels” and the “CD44 protein level in endpoint tumors” value (CD44) was “lower levels”.
